Publication PMC9668914, “Understanding VPAC receptor family peptide binding and selectivity” (Nature Communications, 2022)
No end group written: not given here.

Target: T1, VPAC1R (Homo sapiens, UniProt P32241)
T1 construct: An HA signal peptide was inserted in place of the native signal peptide of the receptors; HA signal peptide (replaces the native signal peptide) (N); 3C protease cleavage sites (between FLAG and receptor, and between receptor and His) (internal); expressed in transfected cells; host or cells: COS-7 (transient, PEI)
T1 sequence (P32241 31-457): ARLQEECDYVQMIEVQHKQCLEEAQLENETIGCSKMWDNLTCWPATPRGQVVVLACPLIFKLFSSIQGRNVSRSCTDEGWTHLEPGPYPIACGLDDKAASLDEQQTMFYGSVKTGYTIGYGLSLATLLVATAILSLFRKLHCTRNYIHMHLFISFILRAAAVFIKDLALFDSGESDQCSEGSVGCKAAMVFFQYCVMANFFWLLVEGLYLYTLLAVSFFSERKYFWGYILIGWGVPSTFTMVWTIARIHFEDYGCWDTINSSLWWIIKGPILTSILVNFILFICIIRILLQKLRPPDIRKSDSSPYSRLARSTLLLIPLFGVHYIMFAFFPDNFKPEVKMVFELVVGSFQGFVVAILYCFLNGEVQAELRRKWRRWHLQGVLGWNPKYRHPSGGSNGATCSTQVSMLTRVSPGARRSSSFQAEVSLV
Test: cAMP accumulation, chimeric peptides (Fig. 5a)
Format: cell-based
Settings: pEC50, VPAC1R cAMP, COS-7, three-parameter logistic
Protocol: COS-7 cells were used for the chimeric peptide and cysteine mutagenesis pharmacological assays due to their lack of endogenous expression of PAC1R and receptor activity-modifying proteins, reported to potentially heterodimerize with PAC1R and VPAC1R[42]. […] COS-7 cells were plated in 10 cm dishes at approximately 1 million cells/dish. Cells were transfected 24 h later, with 5 µg of either WT or mutant PAC1R or VPAC1R receptor DNA. DNA and PEI (in a 1:6 ratio) were each diluted in 150 mM NaCl, and then combined and incubated for 10 min, before the mixture was added to the 10 cm dish. The next day, cells were harvested from the 10 cm dishes using Trypsin-Versene (PBS + 0.5 mM EDTA, pH 7.4), and were seeded at a density of 15,000 cells/well into clear 96-well culture plates and incubated overnight at 37 °C in 5% CO2 for cAMP accumulation assay the next day.
The reaction was terminated after 30 min by aspiration of the buffer and addition of 50 μl of ice-cold ethanol. Upon evaporation of ethanol, 75 μl of lysis buffer (5 mM HEPES, 0.1% (w/v) OVA, 0.3% (w/v) Tween20, pH 7.4) was added to the cells. cAMP detection was performed using a LANCE cAMP Detection Kit (PerkinElmer) for the construct validation and cysteine mutagenesis pharmacological assays and cAMP Gs HiRange kit (Cisbio) for the chimeric peptide pharmacological assays. The plates were read using an EnVision plate reader with excitation at 320 nm and emission at 615 nm[45].
The pharmacological data in figures and tables are reported as mean + standard error of the mean (SEM) with the number of biological replicates indicated in the figure and table legends where “n” represents the number of biological replicates performed. Concentration-response data were analyzed in GraphPad Prism version 9.4.0 using a three-parameter logistic curve to derive pEC50 values for the cyclic AMP accumulation. Competition binding data were analyzed in GraphPad Prism using the one site—Fit log IC50 model to derive pIC50 values. For the cysteine mutagenesis data, comparisons of multiple different groups were performed using one-way analysis of variance (ANOVA), followed by Dunnett’s post-hoc test with the control group being the WT receptor, with significance accepted at p < 0.05. For the chimeric peptide data, comparisons of multiple different groups were performed using one-way ANOVA, followed by Tukey’s post-hoc test, with significance accepted at p < 0.05.

Compound	EC50 (replicate n=1) [nM]	EC50 (replicate n=2) [nM]	EC50 (replicate n=3) [nM]	EC50 (replicate n=4) [nM]	EC50 (replicate n=5) [nM]
HSDGVFTDNYTRLRKQMAVKKYLNSILN-NH2 [Gly4 VIP]	1.26	0.995	1.64	1.7	1.39
CC[C@H](C)[C@H](NC(=O)[C@H](C)NC(=O)[C@H](CC(=O)O)NC(=O)[C@H](CO)NC(=O)[C@@H](N)Cc1cnc[nH]1)C(=O)N[C@@H](Cc1ccccc1)C(=O)N[C@H](C(=O)N[C@@H](CC(=O)O)C(=O)N[C@@H](CO)C(=O)N[C@@H](Cc1ccc(O)cc1)C(=O)N[C@@H](CO)C(=O)N[C@@H](CCCNC(=N)N)C(=O)N[C@@H](Cc1ccc(O)cc1)C(=O)N[C@@H](CCCNC(=N)N)C(=O)N[C@@H](CCCCN)C(=O)N[C@@H](CCC(N)=O)C(=O)N[C@@H](CCSC)C(=O)N[C@@H](C)C(=O)N[C@H](C(=O)N[C@@H](CCCCN)C(=O)N[C@@H](CCCCN)C(=O)N[C@@H](Cc1ccc(O)cc1)C(=O)N[C@@H](CC(C)C)C(=O)N[C@@H](C)C(=O)N[C@@H](C)C(=O)N[C@H](C(=O)N[C@@H](CC(C)C)C(N)=O)C(C)C)C(C)C)[C@@H](C)O [Ala4 PACAP27]	2.25	2.52	9.38	1.73	12.4
